From ChEMBL document CHEMBL1201862, “PubChem BioAssay data set” (2004)
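Dose response: 5 concentrations. Exposure: 48 h. Format: 96-well plates. Endpoint: linear interpolation; highest concentration if not reached. GI50: concentration for 50% inhibition of growth.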 Calls of active or inactive are those of the source. Cut-off read from the data, not from the text of the source: active = GI50 up to about 1.1 µM and inactive = higher.

Legend:
Test in all cases: growth of human tumour cells (NCI), 48 h
SK-MEL-5 = tested on: SK-MEL-5
OVCAR-4 = tested on: OVCAR-4
NCI-H522 = tested on: NCI-H522
M14 = tested on: M14
SR = tested on: SR
Hs-578T = tested on: Hs-578T
SK-MEL-2 = tested on: SK-MEL-2
U-251 = tested on: U-251
UACC-62 = tested on: UACC-62
HOP-62 = tested on: HOP-62
MDA-MB-435 = tested on: MDA-MB-435
SN12C = tested on: SN12C
CAKI-1 = tested on: CAKI-1
CCRF-CEM = tested on: CCRF-CEM
LOX IMVI = tested on: LOX IMVI
RXF 393 = tested on: RXF 393
TK-10 = tested on: TK-10
UACC-257 = tested on: UACC-257
A498 = tested on: A498
HCC 2998 = tested on: HCC 2998

Row | SMILES | GI50 (SK-MEL-5) | GI50 (OVCAR-4) | GI50 (NCI-H522) | GI50 (M14) | GI50 (SR) | GI50 (Hs-578T) | GI50 (SK-MEL-2) | GI50 (U-251) | GI50 (UACC-62) | GI50 (HOP-62) | GI50 (MDA-MB-435) | GI50 (SN12C) | GI50 (CAKI-1) | GI50 (CCRF-CEM) | GI50 (LOX IMVI) | GI50 (RXF 393) | GI50 (TK-10) | GI50 (UACC-257) | GI50 (A498) | GI50 (HCC 2998)
1 | NC(=O)C(c1ccccc1)N1OC2C(=O)N(c3ccccc3)C(=O)C2C1c1c2ccccc2c(Cl)c2ccccc12 (centres undefined) | > 100 µM (inactive) | > 100 µM (inactive) | > 100 µM (inactive) | > 100 µM (inactive) | > 100 µM (inactive) | > 100 µM (inactive) | > 100 µM (inactive) | > 100 µM (inactive) | > 100 µM (inactive) | > 100 µM (inactive) | > 100 µM (inactive) | > 100 µM (inactive) | > 100 µM (inactive) | 61.4 µM (inactive) | > 100 µM (inactive) | > 100 µM (inactive) |  |  |  | 
2 | O=C1/C(=C/c2ccccc2)CCCc2ccccc21 |  | 17.3 µM (inactive) | 21.1 µM (inactive) | 20.1 µM (inactive) | 14.4 µM (inactive) | 21.9 µM (inactive) | 16.2 µM (inactive) | 15.7 µM (inactive) | 15.1 µM (inactive) | 19.2 µM (inactive) | 18.3 µM (inactive) | 19.6 µM (inactive) | 22.3 µM (inactive) | 15.7 µM (inactive) | 18.4 µM (inactive) |  | 19.8 µM (inactive) | 15.7 µM (inactive) |  | 
3 | Cc1ccc(C2=Nc3c(c(C)nn3-c3ccccc3)N=C(C(=O)O)C2)cc1 | > 10 µM (inactive) | > 10 µM (inactive) | > 10 µM (inactive) | > 10 µM (inactive) |  | > 10 µM (inactive) | > 10 µM (inactive) | > 10 µM (inactive) | > 10 µM (inactive) | > 10 µM (inactive) | > 10 µM (inactive) | > 10 µM (inactive) | > 10 µM (inactive) | > 10 µM (inactive) | > 10 µM (inactive) | > 10 µM (inactive) | > 10 µM (inactive) | > 10 µM (inactive) | > 10 µM (inactive) | > 10 µM (inactive)
4 | NP1(Oc2ccc(F)cc2)=NP(N)(Oc2ccc(F)cc2)=NP(Oc2ccc(F)cc2)(Oc2ccc(F)cc2)=N1 (centres undefined) | 4.91 µM (inactive) |  |  | 6.9 µM (inactive) | 4.56 µM (inactive) | 5.64 µM (inactive) |  | 4.78 µM (inactive) |  | 9.68 µM (inactive) | 7.01 µM (inactive) | 6.18 µM (inactive) | 10.2 µM (inactive) | 6.21 µM (inactive) | 6.84 µM (inactive) |  | 2.77 µM (inactive) | 12.3 µM (inactive) | < 0.01 µM (active) | 3.19 µM (inactive)
5 | CC[N+](CC)(CCNCC(N)=O)CC(N)=O | > 10 µM (inactive) | > 10 µM (inactive) | > 10 µM (inactive) | > 10 µM (inactive) |  | > 10 µM (inactive) | > 10 µM (inactive) | > 10 µM (inactive) | > 10 µM (inactive) | > 10 µM (inactive) | > 10 µM (inactive) | > 10 µM (inactive) | > 10 µM (inactive) | > 10 µM (inactive) | > 10 µM (inactive) | > 10 µM (inactive) | > 10 µM (inactive) | > 10 µM (inactive) | > 10 µM (inactive) | > 10 µM (inactive)
6 | Cc1cc2ccc(N)nc2nc1O | > 100 µM (inactive) |  | 49.2 µM (inactive) | > 100 µM (inactive) | > 100 µM (inactive) | > 100 µM (inactive) | > 100 µM (inactive) | 99.1 µM (inactive) | > 100 µM (inactive) |  | > 100 µM (inactive) | > 100 µM (inactive) | > 100 µM (inactive) |  |  | > 100 µM (inactive) | > 100 µM (inactive) | > 100 µM (inactive) |  | 
7 | Cc1nc2ccccc2n1COC(Cn1ccnc1)c1ccc(Cl)cc1Cl (centres undefined) | 22.4 µM (inactive) | 30.4 µM (inactive) | > 100 µM (inactive) | > 100 µM (inactive) | 60.3 µM (inactive) | 81.7 µM (inactive) | 64 µM (inactive) | 86.9 µM (inactive) | 56.5 µM (inactive) | 57.3 µM (inactive) | 50.1 µM (inactive) | > 100 µM (inactive) | 17.4 µM (inactive) | 88.9 µM (inactive) | 50.8 µM (inactive) |  | 83.9 µM (inactive) | 31 µM (inactive) | > 100 µM (inactive) | 76 µM (inactive)
8 | O=C(COc1ccccc1)N(C(=O)N1CCN(c2ccccc2)CC1)S(=O)(=O)c1ccccc1 | > 100 µM (inactive) | > 100 µM (inactive) | 31.9 µM (inactive) | > 100 µM (inactive) | 21.7 µM (inactive) | > 100 µM (inactive) | > 100 µM (inactive) | 30.8 µM (inactive) | > 100 µM (inactive) | 72.8 µM (inactive) | > 100 µM (inactive) | 53 µM (inactive) | > 100 µM (inactive) | 22.1 µM (inactive) | 77.4 µM (inactive) |  | > 100 µM (inactive) | > 100 µM (inactive) | > 100 µM (inactive) | > 100 µM (inactive)
9 | C(/C=N/N=C1NCCCN1)=N\N=C1NCCCN1 | > 100 µM (inactive) | > 100 µM (inactive) | > 100 µM (inactive) | > 100 µM (inactive) | > 100 µM (inactive) | > 100 µM (inactive) |  | > 100 µM (inactive) | > 100 µM (inactive) | > 100 µM (inactive) | > 100 µM (inactive) | > 100 µM (inactive) | > 100 µM (inactive) | > 100 µM (inactive) | > 100 µM (inactive) |  | > 10 µM (inactive) | > 100 µM (inactive) |  | > 100 µM (inactive)
10 | COc1ccccc1N1C(=O)/C(=C\c2ccccc2)SC1c1cc(OC)c(OC)c(OC)c1 (centres undefined) | 27.6 µM (inactive) | 53.5 µM (inactive) | 22.2 µM (inactive) | 35.1 µM (inactive) | 33.7 µM (inactive) | 33.7 µM (inactive) | 7.06 µM (inactive) | 27.1 µM (inactive) | 30.2 µM (inactive) | 46.7 µM (inactive) | 17.9 µM (inactive) | 17.6 µM (inactive) | 34.2 µM (inactive) |  | 21.9 µM (inactive) |  | > 100 µM (inactive) | 83.4 µM (inactive) | 55.6 µM (inactive) | 37.3 µM (inactive)
11 | CSC1=N/C(=C\c2ccc(Cl)cc2)C(=O)N1CN1CCOCC1 | 32.6 µM (inactive) | 21 µM (inactive) | 30.7 µM (inactive) | 39 µM (inactive) | 0.0791 µM (active) | 33 µM (inactive) | 52.8 µM (inactive) | 27 µM (inactive) | 28.9 µM (inactive) | 23.4 µM (inactive) | 58.3 µM (inactive) | 47.5 µM (inactive) |  | 30.8 µM (inactive) | 26.4 µM (inactive) |  | 27.5 µM (inactive) |  | 17.6 µM (inactive) | 
12 | COc1cccc(C(=O)Oc2ccc(OS(=O)(=O)c3ccc(C)cc3)cc2)c1C#N | 11.4 µM (inactive) | 52.5 µM (inactive) | 86.7 µM (inactive) | 47.9 µM (inactive) | 47.9 µM (inactive) | 86.7 µM (inactive) | 66.5 µM (inactive) | > 100 µM (inactive) | 87.3 µM (inactive) | > 100 µM (inactive) | 55.5 µM (inactive) | > 100 µM (inactive) | > 100 µM (inactive) | 47.5 µM (inactive) | > 100 µM (inactive) | 37.6 µM (inactive) | 78.7 µM (inactive) | 28.6 µM (inactive) |  | 
13 | Cc1cccc(-c2cccc(COCc3cccc(-c4cccc(CO)n4)n3)n2)n1 | 11.7 µM (inactive) | > 50 µM (inactive) | > 50 µM (inactive) | 34.4 µM (inactive) | > 50 µM (inactive) | 35.7 µM (inactive) | > 50 µM (inactive) | > 50 µM (inactive) | > 50 µM (inactive) | > 50 µM (inactive) | > 50 µM (inactive) | > 50 µM (inactive) | 34.4 µM (inactive) |  | > 50 µM (inactive) |  | 32.5 µM (inactive) | 12.8 µM (inactive) | > 50 µM (inactive) | > 50 µM (inactive)
14 | Nc1ccccc1C(=O)CC1OC(=O)c2ccccc21 (centres undefined) |  | 65.5 µM (inactive) | > 100 µM (inactive) | > 100 µM (inactive) | 46.5 µM (inactive) | 46.8 µM (inactive) | 14 µM (inactive) | 48.4 µM (inactive) | 64.9 µM (inactive) | 91 µM (inactive) | 57.4 µM (inactive) | > 100 µM (inactive) |  |  | 52.8 µM (inactive) |  | > 100 µM (inactive) | > 100 µM (inactive) | 43.2 µM (inactive) | 
15 | C=CCC(C(=O)Nc1cccc2nc[nH]c12)C(=O)OCC (centres undefined) |  | 43.1 µM (inactive) | > 100 µM (inactive) | > 100 µM (inactive) | > 100 µM (inactive) | > 100 µM (inactive) | > 100 µM (inactive) | > 100 µM (inactive) | 85.3 µM (inactive) | > 100 µM (inactive) | > 100 µM (inactive) | > 100 µM (inactive) |  |  | > 100 µM (inactive) |  | > 100 µM (inactive) | > 100 µM (inactive) | > 100 µM (inactive) | > 100 µM (inactive)
16 | Cc1ccc2c(n1)C(=O)c1ccccc1C2=O | 6.84 µM (inactive) | 18.7 µM (inactive) | 21.7 µM (inactive) | > 44.5 µM (inactive) |  | 72.3 µM (inactive) | 28.8 µM (inactive) | 27.8 µM (inactive) | 20.5 µM (inactive) | 38 µM (inactive) | 18.2 µM (inactive) | 26.4 µM (inactive) | 39.2 µM (inactive) | 37.7 µM (inactive) | 17.6 µM (inactive) | 24.8 µM (inactive) | 71.3 µM (inactive) | 19.1 µM (inactive) | 31.6 µM (inactive) | 28.8 µM (inactive)
